These results are taken from US12298308B2, “Neoadjuvant chemotherapy induces breast cancer metastasis through a TMEM-mediated mechanism” (Albert Einstein College of Medicine, priority 2017, dated 2025).

Assay [1] relates to TMEM. In words: TMEM score by triple-stain immunohistochemistry in mouse breast tumors. The assay is classed as in vivo. The source says:
This hypothesis was investigated in the following breast carcinoma models: (i) transgenic MMTV-PyMT mice bearing spontaneous breast tumors, (ii) FVB mice transplanted orthotopically with tumors from MMTV-PyMT donors, and (iii) two patient-derived xenografts (PDX), HT17 and HT33, developed previously in our laboratory (31). […] Treatment of all groups began at the early carcinoma stage (tumor size of ˜0.3 cm) when there is minimal or absent necrosis. It was decided to work with the early-stage PyMT mouse mammary carcinoma model because it more accurately reflects clinically relevant scenarios where most women present with small tumors of <2 cm (32).
(§1) Drug Administration. The following drugs were administered in mice: Paclitaxel was given at 10 mg/Kg i.v every 5 days for 2 weeks; Doxorubicin was given at 5 mg/Kg i.v. every 5 days for 2 weeks; Cyclophosphamide was given at 120 mg/Kg i.p. only once; Rebastinib was given at 10 mg/Kg per os, every 3-4 days for 4 weeks.
(§2) Animals and Animal Procedures. MMTV-PyMT mice were bred in-house at the Albert Einstein College of Medicine (AECOM). Generation of MMTV-PyMT Mena^−/− has been described previously (28). CFP- or Dendra2-labeled mammary carcinoma cells were generated on the FVB background by co-injection of Tg(MMTV-iCRE)1jwp together with Tg(PCAG-loxp-CATstop-loxp-CFP) or Tg(loxP-stop-loxP-PDendra2)jwp plasmids, respectively, by conventional methods in the Albert Einstein Transgenic Mouse Facility. All syngeneic transplantation models were generated through orthotopic transplantation of 1 mm×1 mm tumor chunks, using tumors of 1 cm-diameter from 12-16-week old MMTV-PyMT mena−/− or mena+/+ donor mice into 5-6 week-old FVB recipients. Tumor chunks were implanted on the fourth mammary pad on the left side. The generation of the ER^− HT17 and ER^+ HT33 patient-derived xenografts has been described previously (31). Animal handling and associated procedures were approved by the Institutional Animal Care and Use Committee (IACUC). Additional information is detailed in Supplementary Methods.
Histology and TMEM Immunohistochemistry. Breast tumors and lungs were isolated, rinsed in PBS, fixed in 10% neutral buffered formalin for 48 hours, dehydrated and embedded in paraffin. Sections (5 μm) were stained with H & E or TMEM triple-stain immunohistochemistry, as previously described (3).

In assay [2] the test system is TMEM. In words: Intravital imaging of TMEM-dependent vascular permeability (bursting). The class given is in vivo, mouse. The note with it: co-administration of rebastinib in paclitaxel-treated mice; intravital imaging.
Excerpt: Paclitaxel Induces TMEM-Dependent Vascular Permeability in Breast Tumors—Given that chemotherapy treatment may affect blood vessel dynamics by inducing angiogenesis (9, 11-13, 35-37), intravital imaging (IVI) (FIG. 2A) was used to investigate whether neoadjuvant paclitaxel induces TMEM-dependent (localized) or TMEM-independent (more universal) blood vessel leakage. […] As also reported previously (1), we never observed any bursting incidents without juxtaposition to a clearly defined TMEM site. Bursting was documented by the accumulation of Dextran-TMR signal over time around an active TMEM site, and no such accumulation was observed away from TMEM (FIGS. 2B-C). The entire time-lapse of these was recorded in videos, respectively. The intensity values from all TMEM-mediated bursting incidents observed in paclitaxel-treated mice were averaged and plotted over the entire time of bursting activity (FIG. 2D), which confirmed the transient nature of paclitaxel-induced TMEM-dependent vascular permeability.
as §1
Intravital Imaging. Intravital imaging was performed using a custom-built two-laser multiphoton microscope, as previously described (57). Mice were anesthetized using 0.75-2.5% isofluorane, depilated. A skin flap procedure, previously developed (58), was performed by exposing the 4th or 5th mammary fat pad. Given the early stage of carcinoma and small tumor size, this necessitated the development of a custom fixturing technique where the exposed tissue was stabilized by affixing the edge of a 10-mm window fitted with an 8-mm clear aperture respectively with cyanoacrylate. The mouse was then placed on a fixturing plate, fitted to the respective window, on the microscope xy stage and imaging was performed in the center of the window away from the glue. The animal was placed in a heated chamber, AirTherm ATX forced air heater (WPI Inc.), maintained at physiologic temperature during the course of imaging, and supplemented with 50-100 uL of PBS per hour via the tail vein catheter. As previously described (1), three milligrams of 155-kDa TMR-dextran (Sigma) were administered via the catheter to visualize the vasculature. All images were reconstructed and analyzed in ImageJ (59), as described in Supplementary Methods.

The subject of the next assay is circulating tumor cells. In words: Circulating tumor cells per mL of blood. The note with it: PyMT-transplantation and HT17 xenograft. The assay is classed as in vivo, mouse. The procedure: as §1
Circulating Tumor Cells. Mice were anesthetized with 3.5-4.5% isoflurane, and blood was taken from the right ventricle by heart puncture, using 25G needles coated with heparin. Erythrocytes were lysed, using 10 ml of 1×RBC lysis buffer (multi-species, eBioscience). Cancer cells were quantified, as previously described (31, 60).

Assay [3] concerns Tie2^hi/Vegf^hi macrophages. In words: Macrophage infiltration by multi-channel immunofluorescence (Iba1, Cd31, Tie2, Vegf). The class given is in vivo, mouse.
Excerpt: The functional TMEM sites contain Tie2^hi/Vegf^hi macrophages and invasive tumor cells in perivascular regions (1), and it was independently shown that chemotherapy may promote mobilization of such Tie2^hi monocyte progenitors in primary tumors (8, 10). The Tie2^hi/Vegf^hi macrophage subpopulation was quantified herein using multi-channel immunofluorescence (IF) imaging (FIGS. 1D-F) (10, 14, 34). FIG. 1E illustrates a representative IF image of a Tie2^hi/Vegf^hi macrophage quantified using Cd31, Iba1, Vegf and Tie2 staining.
as §1, §2
Immunofluorescence. Slides were deparaffinized by melting at 60° C. in an oven equipped with a fan for 20 minutes, followed by 2× xylene treatment for 20 minutes. Slides were rehydrated and antigen retrieval was done in 1 mM EDTA (pH 8.0) or 1× citrate buffer (pH 6.0) (Diagnostic BioSystems) at 97° C. for 20 minutes in a conventional steamer. Endogenous peroxidase was blocked by using 0.3% hydrogen peroxide in water, followed by incubation of slides in a blocking buffer solution (10% FBS, 1% BSA, 0.0025% fish skin gelatin in 0.05% PBST) for 60 minutes at room temperature. The following primary antibodies were used in different combinations, depending on the experiment: chicken anti-Mena^INV (0.25 ug/mL, generated in-house in the lab of John S. Condeelis), rabbit anti-Cd31 (1:400; 77699s; Cell Signaling), rabbit anti-Vegf (1:2,000; Rb 9031-PO-A; Thermo), rat anti-Tie2 (1:100; 16-5987-82; eBioscience), rabbit anti-Iba1 (1:6,000; 019-19741; Wako), rat anti-endomucin (1:500; sc-65495; Santa Cruz), rabbit anti-TMR (1:1,000; A-6397; Life Technologies). Secondary antibody treatment was performed using HRP-conjugated antibodies, and was followed by tyramide signal amplification (TSA), using the Perkin Elmer; Opal™ 4-color Fluorescent IHC kit, according to the manufacturer's directions. All slides were imaged on the Pannoramic 250 Flash II digital whole slide scanner, using a 20×0.75NA objective lens. Image analysis was performed in ImageJ, detailed in Supplementary Methods.

Where [4] appears, read: rebastinib in paclitaxel-treated animals.
The mark [5] stands for this setting: single agent vs vehicle, PyMT-transplantation and HT17 xenograft.

SMILES strings stand for the structures.

For `CNC(=O)c1cc(Oc2ccc(NC(=O)Nc3cc(C(C)(C)C)nn3-c3ccc4ncccc4c3)c(F)c2)ccn1` [rebastinib, 4-[4-[(5-tert-butyl-2-quinolin-6-ylpyrazol-3-yl)carbamoylamino]-3-fluorophenoxy]-N-methylpyridine-2-carboxamide], the TMEM assembly result in the assay on TMEM [1] (setting [4]) is given as “without affecting”. Also, the “overall TMEM score (TMEM assembly)” value in the assay on TMEM [1] (setting [5]) is “did not significantly affect”. For the same molecule, in the assay with TMEM [2], the frequency of bursting result is given as “completely abolished” and the incidence of bursting result is “completely abolished”. In the assay with circulating tumor cells (setting [4]), the circulating tumor cells entry was “decreased circulating tumor cells to the level observed in the control animals”. For the same molecule, the “number of CTCs (TMEM activity)” value in the assay on circulating tumor cells (single agent vs vehicle) is “reduced”. For the same molecule, the “number of perivascular Tie2^hi/Vegf^hi macrophages” value in assay [3] (setting [4]) was “decreased”. In addition, in assay [3] (setting [5]), the “density of perivascular Tie2^hi/Vegf^hi macrophages” value is listed as “did not significantly affect”.
